Data set [1] relates to HT1080-(CAG)850 cells. Put plainly: growth curves of cells. The format is cell-based, human. As to conditions: 50 μM NA. The text has this:
Scale bar represents 20 μm. […] The cell viability was estimated with WST-1 assays. Values represent the means of three independent measures±SD. […] Error bars indicate the SD of triplicate experiments. […] The dashed line indicates the peak CAG size. Allele lengths are grouped in bins spanning 10 repeats. More than 230 alleles were sized per group.

For data set [2], the system named is CASK, ATXN8, and Mfd15 loci in HT1080-(CAG)850 cells. Put plainly: repeat-tract lengths of non-expanded loci in HT1080-(CAG)850 cells. The format is cell-based, human. As to conditions: 30 days incubation with or without NA. An excerpt:
FIG. 5 are results from experiments showing that NA induces CAG contractions in HT1080-(CAG)850 cells, independent of proliferation, dependent upon rCAG transcription. […] Panel B of FIG. 5 are histograms showing repeat length distributions in HT1080-(CAG)850 cells. Frequency distribution of unstable alleles is shown by gray bars. Frequency of stable alleles is shown by black bars. To facilitate comparisons, a dashed line indicates the unchanged CAG size. Allele lengths are grouped in bins spanning 50 repeats. […] More than 50 alleles were sized for each group. P-value was calculated by chi-square test (Table 2). […] P-value was calculated by Student's t-test. […] Repeat length distributions and average repeat size changes are shown. […] Quantitative reverse transcription (RT)-PCR was performed using TaqMan Gene Expression assays. […]
Genomic DNA was extracted from HT1080-(CAG)850 clones and HD primary fibroblasts using the Gentra Puregene Cell Kit (Qiagen, Valencia, Calif.). […] At least 50 alleles were analyzed for each of the three experiments (more than 150 alleles for a total study). […] For the histograms in FIGS. 4D, 4E, 10, 11, 5B, 5D, 5E, 14 and 15B, the Y-axis, “% of repeat population” was calculated by determining the proportion of >50 individual small-pool PCR reactions across the CAG repeat tract, that harbored a certain size of repeat product with a certain length. […]

For data set [3], the system named is d(CAG)9. As to conditions: d(CAG)9 immobilization 497 RU; cited from earlier work.

Turning to naphthyridine-azaquinolone, the “effect on cell proliferation (growth curves)” value in data set [1] is “lack of an effect upon cell proliferation”. Further, the “length variation at CASK, ATXN8, and Mfd15 loci” value in data set [2] was “Length variation was not observed”. The “changes in the SPR intensity on NA binding” value in data set [3] is listed as 140 RU.

(Values after patent US11672786B2, “Methods of treating diseases associated with repeat instability” (The Hospital for Sick Children, priority 2016, dated 2023).)
